Data: patent US9029325B2, “Amylin analogues and pharmaceutical compositions thereof” (Novo Nordisk A/S, priority 2011, dated 2015)
Starred links: 1 amine or outer side, 2 acyl side, 3 side chain; linkers in the order of their positions; H or OH if unused. Positions of bridges follow the written chain, without caps; N, C: chain ends. Residues, ends and D or L forms follow the SMILES beside them. *: point of attachment. C20 diacid = O=C(O)CCCCCCCCCCCCCCCCCCC(=O)*; C18 diacid = O=C(O)CCCCCCCCCCCCCCCCC(=O)*; γGlu = O=C(O)[C@H](CCC(=O)[*:2])N[*:1]

Assay: Assay (I) efficacy testing on appetite (food intake), ad libitum fed rat model
Format: in vivo, Sprague Dawley (SD) rats
Source text: Sprague Dawley (SD) rats from Taconic Europe, Denmark are used for the experiments. The rats have a body weight 200-250 g at the start of experiment. The rats arrive at least 10-14 days before start of experiment to allow acclimatization to experimental settings. During this period the animals are handled at least 2 times. After arrival rats are housed individually for one week in a reversed light/dark phase (meaning that lights are off during daytime and on during nighttime) […]. Since rats are normally active and eat their major part of their daily food intake during the dark period, rats are dosed in the morning right before lights are turned off. This set-up results in the lowest data variation and highst test sensitivity. The experiment is conducted in the rats' home cages and rats have free access to food and water througout the acclimatization period and the experiment period. Each dose of derivative is tested in a group of 5-8 rats. A vehicle group of 6-8 rats is included in each set of testing. Rats are dosed once according to body weight with a 0.01-3 mg/kg solution administered intraperitoneally (ip), orally (po) or subcutaneously (sc). The time of dosing is recorded for each group. After dosing, the rats are returned to their home cages, where they then have access to food and water. The food consumption is recorded individually continuously by on-line registration or manually every hour for 7 hours, and then after 24 h and sometimes 48 h. At the end of the experimental session, the animals are euthanised.
The individual data are recorded in Microsoft excel sheets. Outliers are excluded after applying the Grubbs statistical evaluation test for outliers, and the result is presented graphically using the GraphPad Prism program.

| Compound | Food intake reduction 0-24 h 3 nmol/kg (%) (0-24 h) | Food intake reduction 24-48 h 3 nmol/kg (%) (24-48 h) | Food intake reduction 0-24 h 30 nmol/kg (%) (30 nmol/kg, 0-24 h) | Food intake reduction 24-48 h 30 nmol/kg (%) (30 nmol/kg, 24-48 h) |
| --- | --- | --- | --- | --- |
| CC[C@H](C)[C@H](NC(=O)[C@@H]1CCCN1C(=O)CNC(=O)[C@H](Cc1ccccc1)NC(=O)[C@H](CC(N)=O)NC(=O)[C@H](CC(N)=O)NC(=O)[C@H](CO)NC(=O)[C@H](CO)NC(=O)[C@H](Cc1c[nH]cn1)NC(=O)[C@H](CCCNC(=N)N)NC(=O)[C@H](CC(C)C)NC(=O)[C@H](Cc1ccccc1)NC(=O)[C@H](CCC(=O)O)NC(=O)[C@H](C)NC(=O)[C@H](CC(C)C)NC(=O)[C@H](CCCNC(=N)N)NC(=O)[C@H](CCC(N)=O)NC(=O)[C@@H](NC(=O)[C@H](C)NC(=O)[C@@H]1CSSC[C@H](NC(=O)[C@H](CCCCN)NC(=O)CC[C@H](NC(=O)CCCCCCCCCCCCCCCCCCC(=O)O)C(=O)O)C(=O)N[C@@H](CC(N)=O)C(=O)N[C@@H]([C@@H](C)O)C(=O)N[C@@H](C)C(=O)N[C@@H]([C@@H](C)O)C(=O)N1)[C@@H](C)O)C(=O)N[C@@H](CC(C)C)C(=O)N1CCC[C@H]1C(=O)N1CCC[C@H]1C(=O)N[C@H](C(=O)N[C@@H](CC(N)=O)C(=O)N[C@H](C(=O)NCC(=O)N[C@@H](CO)C(=O)N[C@@H](Cc1c[nH]cn1)C(=O)N[C@H](C(=O)N[C@@H](Cc1ccc(O)cc1)C(N)=O)[C@@H](C)O)C(C)C)[C@@H](C)O [Example 57, N-alpha-[(S)-4-Carboxy-4-(19-carboxynonadecanoylamino)butyryl]-[Glu14,Arg17,His35]-pramlintide] ({C20 diacid-γGlu}-KCNTATCATQRLAEFLRHSSNNFGPILPPTNVGSHTY-NH2; disulfide 2-7 (inferred); C-terminus assumed) | 17 | 0 | – | – |
| CC[C@H](C)[C@H](NC(=O)[C@@H]1CCCN1C(=O)CNC(=O)[C@H](Cc1ccccc1)NC(=O)[C@H](CC(N)=O)NC(=O)[C@H](CC(N)=O)NC(=O)[C@H](CO)NC(=O)[C@H](CO)NC(=O)[C@H](Cc1c[nH]cn1)NC(=O)[C@H](Cc1c[nH]cn1)NC(=O)[C@H](CC(C)C)NC(=O)[C@H](Cc1ccccc1)NC(=O)[C@H](CCC(=O)O)NC(=O)[C@H](C)NC(=O)[C@H](CC(C)C)NC(=O)[C@H](CCCNC(=N)N)NC(=O)[C@H](CCC(N)=O)NC(=O)[C@@H](NC(=O)[C@H](C)NC(=O)[C@@H]1CSSC[C@H](NC(=O)[C@H](CCCCN)NC(=O)CC[C@H](NC(=O)CCCCCCCCCCCCCCCCC(=O)O)C(=O)O)C(=O)N[C@@H](CC(N)=O)C(=O)N[C@@H]([C@@H](C)O)C(=O)N[C@@H](C)C(=O)N[C@@H]([C@@H](C)O)C(=O)N1)[C@@H](C)O)C(=O)N[C@@H](CC(C)C)C(=O)N1CCC[C@H]1C(=O)N1CCC[C@H]1C(=O)N[C@H](C(=O)N[C@@H](CC(N)=O)C(=O)N[C@H](C(=O)NCC(=O)N[C@@H](CO)C(=O)N[C@@H](Cc1c[nH]cn1)C(=O)N[C@H](C(=O)N[C@@H](Cc1ccc(O)cc1)C(N)=O)[C@@H](C)O)C(C)C)[C@@H](C)O [Example 59, N-alpha-[(S)-4-Carboxy-4-(17-carboxyheptadecanoylamino)butyryl]-[Glu14,His17,His 35]-pramlintide] ({C18 diacid-γGlu}-KCNTATCATQRLAEFLHHSSNNFGPILPPTNVGSHTY-NH2; disulfide 2-7 (inferred); C-terminus assumed) | 59 | 27 | – | – |
| CC[C@H](C)[C@H](NC(=O)[C@@H]1CCCN1C(=O)CNC(=O)[C@H](Cc1ccccc1)NC(=O)[C@H](CC(N)=O)NC(=O)[C@H](CC(N)=O)NC(=O)[C@H](CO)NC(=O)[C@H](CO)NC(=O)[C@H](Cc1c[nH]cn1)NC(=O)[C@H](Cc1c[nH]cn1)NC(=O)[C@H](CC(C)C)NC(=O)[C@H](Cc1ccccc1)NC(=O)[C@H](CCC(=O)O)NC(=O)[C@H](C)NC(=O)[C@H](CC(C)C)NC(=O)[C@H](CCCNC(=N)N)NC(=O)[C@H](CCC(N)=O)NC(=O)[C@@H](NC(=O)[C@H](C)NC(=O)[C@@H]1CSSC[C@H](NC(=O)[C@H](Cc2c[nH]cn2)NC(=O)CC[C@H](NC(=O)CCCCCCCCCCCCCCCCCCC(=O)O)C(=O)O)C(=O)N[C@@H](CC(N)=O)C(=O)N[C@@H]([C@@H](C)O)C(=O)N[C@@H](C)C(=O)N[C@@H]([C@@H](C)O)C(=O)N1)[C@@H](C)O)C(=O)N[C@@H](CC(C)C)C(=O)N1CCC[C@H]1C(=O)N1CCC[C@H]1C(=O)N[C@H](C(=O)N[C@@H](CC(N)=O)C(=O)N[C@H](C(=O)NCC(=O)N[C@@H](CO)C(=O)N[C@@H](CC(N)=O)C(=O)N[C@H](C(=O)N1CCC[C@H]1C(N)=O)[C@@H](C)O)C(C)C)[C@@H](C)O [Example 84, N-alpha-[(S)-4-Carboxy-4-(19-carboxynonadecanoylamino)butyryl]-[His1, Glu14, His17, Pro37]-pramlintide] ({C20 diacid-γGlu}-HCNTATCATQRLAEFLHHSSNNFGPILPPTNVGSNTP-NH2; disulfide 2-7) | 68 | 67 | – | – |
| CC[C@H](C)[C@H](NC(=O)[C@@H]1CCCN1C(=O)CNC(=O)[C@H](Cc1ccccc1)NC(=O)[C@H](CC(N)=O)NC(=O)[C@H](CC(N)=O)NC(=O)[C@H](CO)NC(=O)[C@H](CO)NC(=O)[C@H](CCCNC(=N)N)NC(=O)[C@H](Cc1c[nH]cn1)NC(=O)[C@H](CC(C)C)NC(=O)[C@H](Cc1ccccc1)NC(=O)[C@H](CCC(=O)O)NC(=O)[C@H](C)NC(=O)[C@H](CC(C)C)NC(=O)[C@H](CCCNC(=N)N)NC(=O)[C@H](CCC(N)=O)NC(=O)[C@@H](NC(=O)[C@H](C)NC(=O)[C@@H]1CSSC[C@H](NC(=O)[C@H](Cc2c[nH]cn2)NC(=O)CC[C@H](NC(=O)CCCCCCCCCCCCCCCCCCC(=O)O)C(=O)O)C(=O)N[C@@H](CC(N)=O)C(=O)N[C@@H]([C@@H](C)O)C(=O)N[C@@H](C)C(=O)N[C@@H]([C@@H](C)O)C(=O)N1)[C@@H](C)O)C(=O)N[C@@H](CC(C)C)C(=O)N1CCC[C@H]1C(=O)N1CCC[C@H]1C(=O)N[C@H](C(=O)N[C@@H](CC(N)=O)C(=O)N[C@H](C(=O)NCC(=O)N[C@@H](CO)C(=O)N[C@@H](CC(N)=O)C(=O)N[C@H](C(=O)N[C@@H](Cc1ccc(O)cc1)C(N)=O)[C@@H](C)O)C(C)C)[C@@H](C)O [compound 1] ({C20 diacid-γGlu}-HCNTATCATQRLAEFLHRSSNNFGPILPPTNVGSNTY-NH2; disulfide 2-7) | 50 | 45 | 93 | 92 |
| CC[C@H](C)[C@H](NC(=O)[C@@H]1CCCN1C(=O)CNC(=O)[C@H](Cc1ccccc1)NC(=O)[C@H](CC(N)=O)NC(=O)[C@H](CC(N)=O)NC(=O)[C@H](CO)NC(=O)[C@H](CO)NC(=O)[C@H](CCCNC(=N)N)NC(=O)[C@H](Cc1c[nH]cn1)NC(=O)[C@H](CC(C)C)NC(=O)[C@H](Cc1ccccc1)NC(=O)[C@H](CCC(=O)O)NC(=O)[C@H](C)NC(=O)[C@H](CC(C)C)NC(=O)[C@H](CCCNC(=N)N)NC(=O)[C@H](CCC(N)=O)NC(=O)[C@@H](NC(=O)[C@H](C)NC(=O)[C@@H]1CSSC[C@H](NC(=O)CC[C@H](NC(=O)CCCCCCCCCCCCCCCCCCC(=O)O)C(=O)O)C(=O)NCC(=O)N[C@@H]([C@@H](C)O)C(=O)N[C@@H](C)C(=O)N[C@@H]([C@@H](C)O)C(=O)N1)[C@@H](C)O)C(=O)N[C@@H](CC(C)C)C(=O)N1CCC[C@H]1C(=O)N1CCC[C@H]1C(=O)N[C@H](C(=O)N[C@@H](CCC(=O)O)C(=O)N[C@H](C(=O)NCC(=O)N[C@@H](CO)C(=O)NCC(=O)N[C@H](C(=O)N[C@@H](Cc1ccc(O)cc1)C(N)=O)[C@@H](C)O)C(C)C)[C@@H](C)O [compound 3] ({C20 diacid-γGlu}-CGTATCATQRLAEFLHRSSNNFGPILPPTEVGSGTY-NH2; disulfide 1-6 (inferred); C-terminus assumed) | 37 | 32 | – | – |
| CC[C@H](C)[C@H](NC(=O)[C@H](CCC(=O)O)NC(=O)CNC(=O)[C@H](Cc1ccccc1)NC(=O)[C@H](CC(N)=O)NC(=O)[C@H](CC(N)=O)NC(=O)[C@H](CO)NC(=O)[C@H](CO)NC(=O)[C@H](CCCNC(=N)N)NC(=O)[C@H](Cc1c[nH]cn1)NC(=O)[C@H](CC(C)C)NC(=O)[C@H](Cc1ccccc1)NC(=O)[C@H](CCC(=O)O)NC(=O)[C@H](C)NC(=O)[C@H](CC(C)C)NC(=O)[C@H](CCCNC(=N)N)NC(=O)[C@H](CCC(N)=O)NC(=O)[C@@H](NC(=O)[C@H](C)NC(=O)[C@@H]1CSSC[C@H](NC(=O)[C@H](Cc2c[nH]cn2)NC(=O)CC[C@H](NC(=O)CCCCCCCCCCCCCCCCCCC(=O)O)C(=O)O)C(=O)N[C@@H](CC(N)=O)C(=O)N[C@@H]([C@@H](C)O)C(=O)N[C@@H](C)C(=O)N[C@@H]([C@@H](C)O)C(=O)N1)[C@@H](C)O)C(=O)N[C@@H](CC(C)C)C(=O)N[C@@H](CO)C(=O)N[C@@H](CCCNC(=N)N)C(=O)N[C@H](C(=O)N[C@@H](CC(N)=O)C(=O)N[C@H](C(=O)NCC(=O)N[C@@H](CO)C(=O)N[C@@H](CC(N)=O)C(=O)N[C@H](C(=O)N[C@@H](Cc1ccc(O)cc1)C(N)=O)[C@@H](C)O)C(C)C)[C@@H](C)O [compound 7] ({C20 diacid-γGlu}-HCNTATCATQRLAEFLHRSSNNFGEILSRTNVGSNTY-NH2; disulfide 2-7 (inferred); C-terminus assumed) | 53 | 46 | – | – |
